Test results from US9187544B2, “Peptide modulators of angiogenesis and use thereof” (The Johns Hopkins University, priority 2007, dated 2015).

Tested on: NCI H82 lung carcinoma cell line tumor xenografts
Experiment: In vivo tumor xenograft model
Conditions: female nude mice, 12 days, monotherapy
Experimental: To characterize the functional effects of anti-angiogenic peptides in mouse models, tumor xenografts were generated in female nude mice using the NCI H82 lung carcinoma cell line. This cell line was chosen because its aggressiveness results in rapid tumor growth. Three peptides, a collagen derived, a CXC chemokine derived and a TSP1 containing protein derived peptide were administered once a day, intraperitoneally (i.p.), at doses 10 and 20 mg/kg/day, in a 200 microliter solution injection as individual agents and as a combination. The CXC protein GRO-α/CXCL1 derived peptide (human sequence: […] (SEQ ID NO: 2445); mouse sequence: […] (SEQ ID NO: 2441)), the TSP1 repeat-containing protein WISP-1 derived peptide (human sequence: GPWEPCSVTCSKGTRTRRR (SEQ ID NO: 2444); mouse sequence: GPWGPCSVTCSKGTQIRQR (SEQ ID NO: 2440)), and the type IV collagen alpha5 fibril derived peptide (human sequence: […] (SEQ ID NO: 2442) is the same as mouse sequence: […] (SEQ ID NO: 2443)). An equivalent volume of PBS was injected as control. The injections were repeated for 12 days.
A population of 10^6 cells were washed twice in PBS and gently resuspended to generate a single cell suspension. The cells were mixed with Matrigel (BD Biosciences) in a final 60% cell solution. Subsequently, the cells were injected into the flank area of immunosuppressed nude mice in a total volume of 100 μl. Following growth incubation of 5 to 6 days, the tumor size volume was calculated by measurements of tumor dimensions with calipers. Tumor growth was monitored to an initial average size of 100 mm^3, which developed within 6 days after inoculation. Peptides were administered once a day, intraperitoneally (i.p.), in doses of 10 mg/kg and 20 mg/kg. In the case of testing a combination each peptide was injected in a two day cycle of a different peptide per day. Equivalent volume of PBS solution was injected as control. The injections were continued for up to […]. A total of six animals per group were used for the experiments per peptide per concentration.

| Sequence | development of tumors (tumor volume) (10 mg/kg/day i.p. once a day) | development of tumors (tumor volume) (20 mg/kg/day i.p. once a day) |
| --- | --- | --- |
| GPWEPCSVTCSKGTRTRRR | suppressed the development of tumors | suppressed the development of tumors |
| LRRFSTMPFMFCNINNVCNF | suppressed the development of tumors | suppressed the development of tumors |
| NGRKACLNPASPIVKKIIEKMLNS [CXC protein GRO-α/CXCL1 derived peptide] | suppressed the development of tumors | suppressed the development of tumors |
